Data reported in patent US20130164337A1, “ANTIMICROBIAL ACTION PHARMACEUTICAL COMPOSITION FOR PARENTERAL ADMINISTRATION AND ITS PRODUCTION PROCESS” (priority 2010, published 2013).

Legend:
Assay in all cases: Experimental sepsis model in mice, survival on the 7th day
Assay type in all cases: in vivo
[1] = test system: Pseudomonas aeruginosa (ATCC 27853 F-51); conditions: Pseudomonas aeruginosa 5×10^8 CFU/mouse; 100 mg/kg intravenous daily during 3 days; hybrid mice (CBA×C57Black/6)CBF1
Excerpt: (§1) To determine therapeutic efficiency of betalactam and their pharmaceutical compositions including BHSiO2, we used experimental sepsis models and a statistical processing method of the received data (χ^2) according to [22, 23].
(§2) Microorganisms: Staphylococcus aureus (ATCC ? 25923 F-49), Escherichia coli (ATCC ? 25922 F-50), Pseudomonas aeruginosa (ATCC ? 27853 F-51).
(§3) Animals: for the experiments we used hybrid mice (CBA×C57Black/6)CBF1 according to the “Regulations for test animals use” (USSR Ministry of health order supplement ? 755 from 12.08. 1977).
(§4) The mice have been injected 0.8 ml of Pseudomonas aeruginosa daily culture suspension with a dosage 5×10^8 CFU/mouse or Staphylococcus aureus daily culture suspension with a dosage of 10^10 CFU/mouse or Escherichia coli daily culture suspension with a dosage of 8×10^8 CFU/mouse.
(§5) The control group has been injected with 0.8 ml of normal saline solution (0.9% sodium chloride solution). In a day after being infected the test mice have been daily (during 3 days) intravenous injected with 100 mg/kg of antibiotics or different pharmaceutical compositions (antibiotic/BHSiO2) watered down with 0.25 ml of normal saline solution. The control group of mice has been injected using the same scheme with normal saline solution […].
(§6) Antibacterial therapy efficiency was evaluated basing on the quantity of the surviving animals on the 7th day after being infected.
(§7) The obtained data shown in Table ? 3 reflect the results of 3 independent experiments (for each preparation research were used not less than 30 test animals in total).

[2] = test system: Escherichia coli (ATCC 25922 F-50); conditions: Escherichia coli 8×10^8 CFU/mouse; 100 mg/kg intravenous daily during 3 days; hybrid mice (CBA×C57Black/6)CBF1
Excerpt: as §1, §2, §3, §4, §5, §6, §7

[3] = test system: Staphylococcus aureus (ATCC 25923 F-49); conditions: Staphylococcus aureus 10^10 CFU/mouse; 100 mg/kg intravenous daily during 3 days; hybrid mice (CBA×C57Black/6)CBF1
Excerpt: as §1, §2, §3, §4, §5, §6, §7

Structure (SMILES) | Mice survival rate on the 7th day of infection [1] | Mice survival rate on the 7th day of infection [2] | Mice survival rate on the 7th day of infection [3]
C[C@H]1[C@H](NC(=O)/C(=N\OC(C)(C)C(=O)O)c2csc(N)n2)C(=O)N1S(=O)(=O)O [Aztreonam] | 74.4% (32/43) | 77.5% (31/40) | –
CC1(C)S[C@@H]2[C@H](NC(=O)C(C(=O)O)c3ccccc3)C(=O)N2[C@H]1C(=O)O (stereo partly drawn) [Carbenicillin] | 43.3% (13/30) | 43.3% (13/30) | 46.7% (14/30)
Cc1nnc(SCC2=C(C(=O)O)N3C(=O)[C@@H](NC(=O)Cn4cnnn4)[C@H]3SC2)s1 [Cefazolin] | – | – | 37.5% (12/32)
CO/N=C(\C(=O)N[C@@H]1C(=O)N2C(C(=O)[O-])=C(C[N+]3(C)CCCC3)CS[C@H]12)c1csc(N)n1 [Cefepime] | 46.7% (14/30) | 43.7% (14/32) | 46.7% (14/30)
CCN1CCN(C(=O)N[C@@H](C(=O)N[C@@H]2C(=O)N3C(C(=O)O)=C(CSc4nnnn4C)CS[C@H]23)c2ccc(O)cc2)C(=O)C1=O [Cefoperazone] | 40.0% (12/30) | 45.2% (14/31) | –
CO/N=C(\C(=O)N[C@@H]1C(=O)N2C(C(=O)O)=C(COC(C)=O)CS[C@H]12)c1csc(N)n1 [Cefotaxime] | – | 43.3% (13/30) | 40.0% (12/30)
CO[C@@]1(NC(=O)Cc2cccs2)C(=O)N2C(C(=O)O)=C(COC(N)=O)CS[C@@H]21 [Cefoxitin] | – | 46.7% (14/30) | 35.2% (15/34)
CC(C)(O/N=C(\C(=O)N[C@@H]1C(=O)N2C(C(=O)[O-])=C(C[n+]3ccccc3)CS[C@H]12)c1csc(N)n1)C(=O)O [Ceftazidime] | 43.3% (13/30) | 38.7% (15/31) | –
CO/N=C(\C(=O)N[C@@H]1C(=O)N2C(C(=O)O)=C(CSc3nc(=O)c(=O)[nH]n3C)CS[C@H]12)c1csc(N)n1 [Ceftriaxone] | – | 41.9% (13/31) | 46.7% (14/30)
CO/N=C(\C(=O)N[C@@H]1C(=O)N2C(C(=O)O)=C(COC(N)=O)CS[C@H]12)c1ccco1 [Cefuroxime] | – | 43.7% (14/32) | 40.0% (14/35)
C[C@@H](O)[C@H]1C(=O)N2C(C(=O)O)=C(S[C@@H]3CN[C@H](C(=O)N(C)C)C3)[C@H](C)[C@H]12 [Meropenem] | 73.8% (31/42) | 78.0% (32/41) | 73.3% (22/30)
